# Results taken from patent publication US20060234919A1, “Use” (priority 2001, published 2006).
# Columns and labels:
# [1] = system: carrageenan induced edema; test: carrageenan induced edema of the rat hindpaw (plethysmometer); type: in vivo; conditions: for carrageenan induced edema, percentage increase from pre-treatment values in hindpaw volume: 1000 μg/kg s.c., p<0.05
# Procedure: Male Sprague-Dawley rats (260-300 g for s.c. injected and 340-380 g for i.c.v. injected) were used (B&K Universal A B, Sollentuna, Sweden). The animals arrived at least one week before experiments and were housed three-four per cage (except animals provided with i.c.v. cannulas that were housed individually) with free access to food (R36, Ewos, Södertälje, Sweden) and water. The light schedule was a 12/12 h light/dark cycle, and ambient temperature was 20±2° C.
# Oxytocin and the oxytocin antagonist (1-deamino-2-D-Tyr-(OEt)-4-Thr-8-Orn-oxytocin) (Ferring, Malmö, Sweden) were dissolved in physiological saline and injected in a volume of 1 ml/kg s.c. in the dorsal neck. Dexamethasone (Decadron®, Merck, Sharp & Dome, USA) was administered intramuscularly (i.m.). Oxytocin given i.c.v. was dissolved in a volume of 5 μl physiological saline and slowly injected over a period of 1 minute through the i.c.v. guide cannula via a 25 G stain-less-steel injection needle connected to a 10 μl Hamilton syringe via a polyethylene tube. Controls received saline in the same amounts.
# The model of inflammation used, the carrageenan induced edema, is a commonly used model for studies of inflammation and for testing novel anti-inflammatory drugs (Winter C A, Risley E A, Nuss G W. Carrageenan-induced edema in hind paw of the rat as an assay for anti-inflammatory drugs. Proc Soc Exp Biol Med 1962; 111:544-7). To produce acute inflammation, carrageenan, 2 mg in 0.1 ml saline, was injected s.c. into the plantar region of the rat right hindpaw.
# The rats were treated s.c. with oxytocin (1.0, 10, 100 or 1000 μg/kg (n=8 in each group) or saline (n=8+8) immediately before the carrageenan injection. The edema of the right hindpaw was measured (volume in ml) using a plethysmometer (Ugo Basile, type 7150, Florence, Italy) before treatment, half an hour after, one hour after, and then every hour up to 6 or 10 hours after treatment.
# The results are presented as means±SD. Statistical analysis was performed by means of a 1-way ANOVA, followed by Fisher's test for post-hoc comparisons. In the analysis of myeloperoxidase accumulation, a Student's t-test was used. P-values of 0.05 or less were regarded as statistically significant.
# The rats were treated s.c. with oxytocin (1000 μg/kg) and the oxytocin antagonist (1000 μg/kg) (the antagonist was given 30 minutes before oxytocin) (n=8), the oxytocin antagonist alone (1000 μg/kg) (n=8) or saline (n=8) immediately before the carrageenan injection. Measurements as in Example 1.
# The rats were treated i.c.v. with oxytocin (1.0 μg/kg) (n=6) or saline (n=7) immediately before the carrageenan injection. Measurements as in Example 1. The animals were anaesthetised with sodiumpentobarbital (50 mg/kg) (Apoteksbolaget, Sweden) injected intraperitoneally (i.p.). The scull was uncovered, a hole was drilled in the right parietal bone and a guide cannula (21 G) was fixed stereotactically to the scull by means of acrylic dental cement. The coordinates were 1.00 mm posterior and 1.30 mm lateral to the bregma. […] The injection needles (25 G) reached 3.80 mm below the dura mater, with the tip of the needle in the right lateral ventricle. The animals were allowed one week of recovery after the operation. At the end of the experiment, the placement of the guide cannula was checked by injection of 2 μl of toluidine blue.
# The rats were treated i.m. with dexamethasone (10 mg/kg) (n=6) or saline (n=6) immediately before the carrageenan injection. The edema of the right hindpaw was measured using the plethysmometer before treatment, and at 2, 4 and 6 hours after treatment.
# [2] = system: cyclophosphamide-induced cystitis; test: cyclophosphamide-induced cystitis, plasma protein extravasation (Evans blue); type: in vivo, rat; conditions: oxytocin pre-treatment, 4 h
# Procedure: Cyclophosphamide (100 mg/kg) was injected i.p. in barbiturate-anaesthetised rats for the induction of acute cystitis. Control animals were injected with an appropriate volume (4 ml/kg) of the vehicle (154 mmol/l NaCl). Five min prior to the administration of cyclophosphamide or vehicle all animals were injected i.v. with the protein marker, Evans blue (20 mg/kg). At 4 h, when increases in vascular permeability have reached maximum values in this model (Aramori I, Zenkoh J, Morikawa N, O'Donnell N. Asano M, Nakamur K et al. Novel subtype-selective nonpeptide bradykinin antagonists FR167334 and FR173657. Mol Pharmacol 1997; 51: 171-176), the uriny bladder was excised following exsanguination, and the total tissue content of Evans blue was determined as above.
# Plasma protein extravasation in the urinary bladder of anaesthetised rats was made 4 h after i.p. injection of cyclophosphamide (100 mg/kg). Control animals were treated with appropriate volumes of the vehicles ([…] silicone oil or 4 ml/kg 154 mmol/l NaCl solution, respectively). Oxytocin (1 mg/ml) was injected s. c. 1 h before administration of xylene or cyclophosphamide while control rats received DMSO (0.5 ml/kg, s. c.). Plasma protein extravasation is given as total tissue content of the protein marker, Evans blue, given i. v. (20 mg/kg) 5 min prior to the induction of cystitis. […]
# allergic rhinitis = test: allergic rhinitis, sneezing and nasal rubbing after antigen challenge in sensitised rats; type: in vivo, rat; conditions: % as compared to untreated; topical 10 μl/each nostril 1 h before antigen challenge; counted 30 min
# Procedure: Six-week-old male Wistar rats were housed in an air-conditioned room maintained at about 25° C. with humidity of about 50%. Rats were given a standard laboratory rodent chow and water ad libitum.
# Rats were generally sensitised by injection of 0.6 ml physiological saline containing egg albumin (1 mg), alum (2 mg) and […] killed Bordetella pertussis into the four footpads on the first day. Five days later they were boosted by subcutaneous injection of 1 ml of physiological saline containing egg albumin (0.5 mg) in 10 sites on the back. Then, local sensitisation was performed every day for about one week from day 14 by dripping the egg albumin dissolved in physiological saline (1 mg/ml, 10 μl) into the bilateral nasal cavities using a micropipette.
# After dripping 10 μl of egg albumin dissolved in physiological saline solution (1 mg/ml) into the bilateral nasal cavities, the numbers of nasal rubbing and sneezing were counted for 30 min and was set to 100%.
# In this study, the rats were used following intranasal sensitisation (from day 21 to day 23 after the first sensitisation). On the last day, drugs (saline or oxytocin) were given topically (10 μl/each nostril) 1 h before topical antigen challenge. […] Also saline caused a minor decrease.
substance,measurement,setting,value
Oxytocin,effect on carrageenan induced paw edema,"[1]; 1.0 μg/kg i.c.v., p=0.13",did not decrease the paw edema
same,effect on carrageenan induced edema,[1]; 1.0 μg/kg s.c.,No effect
same,effect on carrageenan induced edema,[1]; 10 μg/kg s.c.,No effect
same,effect on carrageenan induced edema,"[1]; 100 μg/kg s.c., 4-10 hours after the injection",reduced the edema significantly
same,"carrageenan induced edema, percentage increase from pre-treatment values in hindpaw volume","[1]; 1 hour after the injection, saline controls 43±11%",21±16%
same,"carrageenan induced edema, percentage increase from pre-treatment values in hindpaw volume","[1]; 2 hours after the injection, saline controls 61±22%",30±17%
same,"carrageenan induced edema, percentage increase from pre-treatment values in hindpaw volume","[1]; 3 hours after the injection, saline controls 79±21%",41 ±16%
same,hindpaw volume compared to controls,"[1]; oxytocin 1000 μg/kg s.c. with oxytocin antagonist 1000 μg/kg s.c. given 30 minutes before, 1-10 hours after carrageenan",significant reduction of the hindpaw volume
same,hindpaw volume compared to controls,"[1]; oxytocin 1000 μg/kg s.c. with oxytocin antagonist 1000 μg/kg s.c., at 24 hours",significant difference was gone
same,"plasma protein extravasation, Evans blue accumulation in the bladder","[2]; cyclophosphamide 100 mg/kg i.p., cyclophosphamide alone 9.76±4.12",2.56 ± 1.28 mg
same,"plasma protein extravasation, Evans blue accumulation in the bladder",[2]; rats given the vehicle of cyclophosphamide,2.11 ± 1.37 mg
same,Nasal rubbing,allergic rhinitis,42%
same,Sneezing,allergic rhinitis,52%
